Measured values as given in ChEMBL document CHEMBL4311959, “Discovery of a potent p38α/MAPK14 kinase inhibitor: Synthesis, in vitro/in vivo biological evaluation, and docking studies” (Eur J Med Chem, 2019).

Key:
[1] = target: Mitogen-activated protein kinase 11 (Homo sapiens) (UniProt Q15759); test: Inhibition of human p38beta at 10 uM using MBP as substrate by [gamma-33P]-ATP assay relative to control
Homo sapiens [2] = species on record: Homo sapiens; test: Selectivity index, ratio of IC50 for human c-MET to IC50 for human p38alpha
[3] = target: Receptor tyrosine-protein kinase erbB-4 (Homo sapiens) (UniProt Q15303); test: Inhibition of human ERBB4 at 10 uM using poly[Glu:Tyr] (4:1) as substrate by [gamma-33P]-ATP assay relative to control
[4] = AUClast in Sprague-Dawley rat at 10 mg/kg, po measured for each 30 mins by LC-MS/MS analysis; format: ADME, organism-based; set-up: dose 10 mg/kg, route oral, time 0 - last; settings: in vivo
Homo sapiens [5] = species on record: Homo sapiens; test: Selectivity index, ratio of IC50 for human ERG to IC50 for human p38alpha
[6] = target: Proto-oncogene tyrosine-protein kinase Src (Homo sapiens) (UniProt P12931); test: Inhibition of human c-SRC at 10 uM using poly[Glu:Tyr] (4:1) as substrate by [gamma-33P]-ATP assay relative to control
[7] = Half life in Sprague-Dawley rat at 10 mg/kg, iv measured for each 30 mins by LC-MS/MS analysis; format: ADME, organism-based; settings: in vivo
[8] = Cmax in Sprague-Dawley rat at 10 mg/kg, po measured for each 30 mins by LC-MS/MS analysis; format: ADME, organism-based; set-up: dose 10 mg/kg, route oral; settings: in vivo
[9] = target: Macrophage colony-stimulating factor 1 receptor (Homo sapiens) (UniProt P07333); test: Inhibition of human FMS at 10 uM using poly[Glu:Tyr] (4:1) as substrate by [gamma-33P]-ATP assay relative to control
[10] = target: T1, Mitogen-activated protein kinase 14 (Homo sapiens, UniProt Q16539); test: Inhibition of human p38alpha using MBP as substrate by [gamma-33P]-ATP assay
T1 sequence (Q16539 whole entry): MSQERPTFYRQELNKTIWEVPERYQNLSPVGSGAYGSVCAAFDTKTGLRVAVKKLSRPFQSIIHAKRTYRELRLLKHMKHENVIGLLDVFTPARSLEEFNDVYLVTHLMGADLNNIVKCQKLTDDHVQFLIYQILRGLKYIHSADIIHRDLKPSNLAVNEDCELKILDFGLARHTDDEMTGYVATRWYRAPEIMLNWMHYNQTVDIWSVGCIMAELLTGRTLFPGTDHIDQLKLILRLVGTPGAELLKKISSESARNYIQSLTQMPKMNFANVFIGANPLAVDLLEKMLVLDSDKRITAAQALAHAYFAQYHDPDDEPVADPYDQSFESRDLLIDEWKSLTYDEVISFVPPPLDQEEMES

[11] = target: Fibroblast growth factor receptor 1 (Homo sapiens) (UniProt P11362); test: Inhibition of human FGFR1 at 10 uM using KKKSPGEYVNIEFG as substrate by [gamma-33P]-ATP assay relative to control
[12] = target: Dual specificity mitogen-activated protein kinase kinase 1 (Homo sapiens) (UniProt Q02750); test: Inhibition of human MEK1 at 10 uM using ERK2 as substrate by [gamma-33P]-ATP assay relative to control
[13] = target: Mitogen-activated protein kinase 8 (Homo sapiens) (UniProt P45983); test: Inhibition of human JNK1 at 10 uM using ATF2 as substrate by [gamma-33P]-ATP assay relative to control
[14] = target: RAF proto-oncogene serine/threonine-protein kinase (Homo sapiens, UniProt P04049); test: Inhibition of human RAF1 using MEK1 as substrate by [gamma-33P]-ATP assay
RAF proto-oncogene serine/threonine-protein kinase, sequence (P04049 whole entry): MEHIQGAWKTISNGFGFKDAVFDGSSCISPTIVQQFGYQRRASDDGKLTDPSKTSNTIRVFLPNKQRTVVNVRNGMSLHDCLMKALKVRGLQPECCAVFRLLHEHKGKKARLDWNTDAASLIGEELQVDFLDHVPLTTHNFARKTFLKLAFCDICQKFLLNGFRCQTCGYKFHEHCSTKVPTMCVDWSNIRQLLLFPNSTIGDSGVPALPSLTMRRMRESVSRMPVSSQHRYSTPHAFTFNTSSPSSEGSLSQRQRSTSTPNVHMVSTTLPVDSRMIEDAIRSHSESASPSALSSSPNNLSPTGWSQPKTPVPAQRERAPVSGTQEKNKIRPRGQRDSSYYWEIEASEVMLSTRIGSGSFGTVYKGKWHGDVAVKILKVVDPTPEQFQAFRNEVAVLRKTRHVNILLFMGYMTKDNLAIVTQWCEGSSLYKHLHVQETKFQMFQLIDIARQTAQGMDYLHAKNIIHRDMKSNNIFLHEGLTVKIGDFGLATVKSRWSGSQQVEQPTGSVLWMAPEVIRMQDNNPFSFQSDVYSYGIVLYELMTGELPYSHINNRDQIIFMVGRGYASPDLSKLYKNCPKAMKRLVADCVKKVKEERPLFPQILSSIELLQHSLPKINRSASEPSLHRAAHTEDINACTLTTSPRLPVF

THP-1 = test: Inhibition of LPS-induced TNFalpha production in human THP1 cells incubated for 1 hr followed by LPS stimulation and measured after 4 hrs by TR-FRET method; format: functional, cell-based
[15] = target: Serine/threonine-protein kinase mTOR (Homo sapiens) (UniProt P42345); test: Inhibition of human mTOR at 10 uM using 4EBP1 as substrate by [gamma-33P]-ATP assay relative to control
[16] = Oral bioavailability in Sprague-Dawley rat at 10 mg/kg measured for each 30 mins by LC-MS/MS analysis; format: ADME, organism-based; settings: in vivo
[17] = target: ALK tyrosine kinase receptor (Homo sapiens) (UniProt Q9UM73); test: Inhibition of human ALK at 10 uM using poly[Glu:Tyr] (4:1) as substrate by [gamma-33P]-ATP assay relative to control
[18] = target: Epidermal growth factor receptor (Homo sapiens) (UniProt P00533); test: Inhibition of human EGFR at 10 uM using poly[Glu:Tyr] (4:1) as substrate by [gamma-33P]-ATP assay relative to control
Epidermal growth factor receptor (Homo sapiens), sequence (P00533 whole entry): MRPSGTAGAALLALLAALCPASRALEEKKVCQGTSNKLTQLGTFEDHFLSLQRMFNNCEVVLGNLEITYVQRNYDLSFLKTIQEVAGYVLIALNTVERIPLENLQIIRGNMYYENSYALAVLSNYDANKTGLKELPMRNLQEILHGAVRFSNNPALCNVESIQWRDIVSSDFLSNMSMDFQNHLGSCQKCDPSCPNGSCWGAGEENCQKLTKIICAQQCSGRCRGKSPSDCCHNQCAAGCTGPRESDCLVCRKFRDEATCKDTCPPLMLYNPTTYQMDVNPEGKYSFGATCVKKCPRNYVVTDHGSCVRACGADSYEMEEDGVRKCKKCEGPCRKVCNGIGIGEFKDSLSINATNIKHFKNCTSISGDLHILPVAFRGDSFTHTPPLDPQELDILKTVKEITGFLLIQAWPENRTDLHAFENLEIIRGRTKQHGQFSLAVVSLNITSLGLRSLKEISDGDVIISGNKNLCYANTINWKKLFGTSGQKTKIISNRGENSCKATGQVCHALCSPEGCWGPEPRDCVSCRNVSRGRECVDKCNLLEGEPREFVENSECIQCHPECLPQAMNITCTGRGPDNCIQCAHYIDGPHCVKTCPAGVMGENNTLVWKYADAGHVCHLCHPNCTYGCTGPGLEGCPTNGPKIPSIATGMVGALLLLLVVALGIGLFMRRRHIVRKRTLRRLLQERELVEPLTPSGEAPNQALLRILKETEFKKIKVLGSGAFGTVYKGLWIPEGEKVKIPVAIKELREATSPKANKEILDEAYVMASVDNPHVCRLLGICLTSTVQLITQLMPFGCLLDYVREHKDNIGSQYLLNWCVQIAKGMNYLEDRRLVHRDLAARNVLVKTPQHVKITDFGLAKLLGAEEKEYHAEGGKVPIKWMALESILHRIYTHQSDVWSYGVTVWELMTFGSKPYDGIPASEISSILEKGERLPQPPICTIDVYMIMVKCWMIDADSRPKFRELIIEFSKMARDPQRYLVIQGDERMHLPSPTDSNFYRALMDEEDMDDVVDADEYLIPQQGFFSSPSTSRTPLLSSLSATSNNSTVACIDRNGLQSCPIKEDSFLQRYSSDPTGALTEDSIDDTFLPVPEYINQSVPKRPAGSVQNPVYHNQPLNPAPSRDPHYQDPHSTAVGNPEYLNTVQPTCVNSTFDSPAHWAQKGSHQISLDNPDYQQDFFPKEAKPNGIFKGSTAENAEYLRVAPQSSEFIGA

[19] = target: Serine/threonine-protein kinase B-raf (Homo sapiens) (UniProt P15056); test: Inhibition of human BRAF at 10 uM using MEK1 (K97R) as substrate by [gamma-33P]-ATP assay relative to control
Serine/threonine-protein kinase B-raf (Homo sapiens), sequence (P15056 whole entry): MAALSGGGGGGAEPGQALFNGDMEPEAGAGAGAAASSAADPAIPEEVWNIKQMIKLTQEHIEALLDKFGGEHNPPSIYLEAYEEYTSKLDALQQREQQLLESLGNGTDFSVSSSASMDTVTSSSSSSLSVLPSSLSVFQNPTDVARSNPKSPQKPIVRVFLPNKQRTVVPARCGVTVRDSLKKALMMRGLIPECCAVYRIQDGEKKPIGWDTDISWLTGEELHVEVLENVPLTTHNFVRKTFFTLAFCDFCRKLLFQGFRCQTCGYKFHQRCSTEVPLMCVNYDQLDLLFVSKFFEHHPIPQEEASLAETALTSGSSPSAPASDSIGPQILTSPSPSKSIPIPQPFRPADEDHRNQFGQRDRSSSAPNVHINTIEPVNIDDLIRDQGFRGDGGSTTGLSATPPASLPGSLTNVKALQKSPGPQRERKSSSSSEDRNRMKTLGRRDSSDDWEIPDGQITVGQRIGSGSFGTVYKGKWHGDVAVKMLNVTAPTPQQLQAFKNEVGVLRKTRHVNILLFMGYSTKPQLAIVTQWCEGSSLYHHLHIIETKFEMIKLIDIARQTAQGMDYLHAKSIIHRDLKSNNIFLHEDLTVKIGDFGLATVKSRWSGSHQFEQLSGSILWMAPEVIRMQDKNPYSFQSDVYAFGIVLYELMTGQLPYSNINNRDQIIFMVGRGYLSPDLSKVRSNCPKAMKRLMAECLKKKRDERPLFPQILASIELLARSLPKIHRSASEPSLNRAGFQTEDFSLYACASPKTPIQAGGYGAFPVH

[20] = Stability in rat plasma assessed as remaining compound at 10 uM incubated for 30 mins by LC-MS analysis; format: ADME, cell-free; settings: read-out: Stability
[21] = Tmax in Sprague-Dawley rat at 10 mg/kg, po measured for each 30 mins by LC-MS/MS analysis; format: ADME, organism-based; settings: in vivo
[22] = target: Hepatocyte growth factor receptor (Homo sapiens, UniProt P08581); test: Inhibition of human c-MET using KKKSPGEYVNIEFG as substrate by [gamma-33P]-ATP assay
[23] = test system: Serine/threonine-protein kinase B-raf (Homo sapiens), P15056 [V600E]; test: Inhibition of human BRAF V600E mutant at 10 uM using MEK1 (K97R) as substrate by [gamma-33P]-ATP assay relative to control
Serine/threonine-protein kinase B-raf (Homo sapiens), P15056 [V600E], sequence (P15056 whole entry V600E): as the sequence (P15056 whole entry) above, with V600E counted along it

[24] = target: RAC-alpha serine/threonine-protein kinase (Homo sapiens) (UniProt P31749); test: Inhibition of human AKT1 at 10 uM using KGSGSGRPRTSSFAEG as substrate by [gamma-33P]-ATP assay relative to control
[25] = AUClast in Sprague-Dawley rat at 10 mg/kg, iv measured for each 30 mins by LC-MS/MS analysis; format: ADME, organism-based; set-up: dose 10 mg/kg, route intravenous, time 0 - last; settings: in vivo
[26] = target: Tyrosine-protein kinase Fyn (Homo sapiens) (UniProt P06241); test: Inhibition of human FYN at 10 uM using poly[Glu:Tyr] (4:1) as substrate by [gamma-33P]-ATP assay relative to control
[27] = target: Tyrosine-protein kinase Tec (Homo sapiens) (UniProt P42680); test: Inhibition of human TEC at 10 uM using poly[Glu:Tyr] (4:1) as substrate by [gamma-33P]-ATP assay relative to control
Tyrosine-protein kinase Tec (Homo sapiens), sequence (P42680 whole entry): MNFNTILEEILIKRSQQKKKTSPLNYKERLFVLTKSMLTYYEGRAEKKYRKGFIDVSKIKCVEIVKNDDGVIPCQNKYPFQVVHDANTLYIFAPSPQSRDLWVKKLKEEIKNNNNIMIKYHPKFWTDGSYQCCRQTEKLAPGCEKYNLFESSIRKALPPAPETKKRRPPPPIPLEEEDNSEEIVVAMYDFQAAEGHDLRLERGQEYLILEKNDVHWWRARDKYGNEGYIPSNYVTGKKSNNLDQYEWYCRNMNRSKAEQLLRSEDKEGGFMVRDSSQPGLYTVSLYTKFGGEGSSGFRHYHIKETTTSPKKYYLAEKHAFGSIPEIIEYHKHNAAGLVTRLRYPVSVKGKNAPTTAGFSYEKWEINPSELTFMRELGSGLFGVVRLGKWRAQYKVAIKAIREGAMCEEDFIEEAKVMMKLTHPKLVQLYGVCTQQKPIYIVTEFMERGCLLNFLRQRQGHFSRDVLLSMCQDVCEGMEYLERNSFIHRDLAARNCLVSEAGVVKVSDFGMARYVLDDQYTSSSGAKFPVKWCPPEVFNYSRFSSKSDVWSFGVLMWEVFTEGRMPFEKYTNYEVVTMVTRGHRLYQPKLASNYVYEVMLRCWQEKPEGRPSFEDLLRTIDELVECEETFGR

[28] = target: Cyclin-dependent kinase 2/cyclin E1 (Homo sapiens) (UniProt P24864+P24941); test: Inhibition of human CDK2/cyclin-E at 10 uM using histone H1 as substrate by [gamma-33P]-ATP assay relative to control; format: protein-complex assay
[29] = Clearance in Sprague-Dawley rat at 10 mg/kg, iv measured for each 30 mins by LC-MS/MS analysis; format: ADME, organism-based; settings: in vivo
[30] = test system: Mitogen-activated protein kinase 14 (Homo sapiens), Q16539 [T106M]; test: Inhibition of human p38alpha T106M mutant at 10 uM using MBP as substrate by [gamma-33P]-ATP assay relative to control
Mitogen-activated protein kinase 14 (Homo sapiens), Q16539 [T106M], sequence (Q16539 whole entry T106M): as the sequence (Q16539 whole entry) above, with T106M counted along it

[31] = AUCinfinity in Sprague-Dawley rat at 10 mg/kg, iv measured for each 30 mins by LC-MS/MS analysis; format: ADME, organism-based; set-up: dose 10 mg/kg, time infinity, route intravenous; settings: in vivo
[32] = target: T1, Mitogen-activated protein kinase 14; test: Inhibition of recombinant Nanoluc-tagged p38alpha (unknown origin) expressed in HEK293 cells incubated for 2 to 3 mins by NanoBRET assay; format: cell-based
[33] = target: Receptor tyrosine-protein kinase erbB-2 (Homo sapiens) (UniProt P04626); test: Inhibition of human ERBB2 at 10 uM using poly[Glu:Tyr] (4:1) as substrate by [gamma-33P]-ATP assay relative to control
Receptor tyrosine-protein kinase erbB-2 (Homo sapiens), sequence (P04626 whole entry): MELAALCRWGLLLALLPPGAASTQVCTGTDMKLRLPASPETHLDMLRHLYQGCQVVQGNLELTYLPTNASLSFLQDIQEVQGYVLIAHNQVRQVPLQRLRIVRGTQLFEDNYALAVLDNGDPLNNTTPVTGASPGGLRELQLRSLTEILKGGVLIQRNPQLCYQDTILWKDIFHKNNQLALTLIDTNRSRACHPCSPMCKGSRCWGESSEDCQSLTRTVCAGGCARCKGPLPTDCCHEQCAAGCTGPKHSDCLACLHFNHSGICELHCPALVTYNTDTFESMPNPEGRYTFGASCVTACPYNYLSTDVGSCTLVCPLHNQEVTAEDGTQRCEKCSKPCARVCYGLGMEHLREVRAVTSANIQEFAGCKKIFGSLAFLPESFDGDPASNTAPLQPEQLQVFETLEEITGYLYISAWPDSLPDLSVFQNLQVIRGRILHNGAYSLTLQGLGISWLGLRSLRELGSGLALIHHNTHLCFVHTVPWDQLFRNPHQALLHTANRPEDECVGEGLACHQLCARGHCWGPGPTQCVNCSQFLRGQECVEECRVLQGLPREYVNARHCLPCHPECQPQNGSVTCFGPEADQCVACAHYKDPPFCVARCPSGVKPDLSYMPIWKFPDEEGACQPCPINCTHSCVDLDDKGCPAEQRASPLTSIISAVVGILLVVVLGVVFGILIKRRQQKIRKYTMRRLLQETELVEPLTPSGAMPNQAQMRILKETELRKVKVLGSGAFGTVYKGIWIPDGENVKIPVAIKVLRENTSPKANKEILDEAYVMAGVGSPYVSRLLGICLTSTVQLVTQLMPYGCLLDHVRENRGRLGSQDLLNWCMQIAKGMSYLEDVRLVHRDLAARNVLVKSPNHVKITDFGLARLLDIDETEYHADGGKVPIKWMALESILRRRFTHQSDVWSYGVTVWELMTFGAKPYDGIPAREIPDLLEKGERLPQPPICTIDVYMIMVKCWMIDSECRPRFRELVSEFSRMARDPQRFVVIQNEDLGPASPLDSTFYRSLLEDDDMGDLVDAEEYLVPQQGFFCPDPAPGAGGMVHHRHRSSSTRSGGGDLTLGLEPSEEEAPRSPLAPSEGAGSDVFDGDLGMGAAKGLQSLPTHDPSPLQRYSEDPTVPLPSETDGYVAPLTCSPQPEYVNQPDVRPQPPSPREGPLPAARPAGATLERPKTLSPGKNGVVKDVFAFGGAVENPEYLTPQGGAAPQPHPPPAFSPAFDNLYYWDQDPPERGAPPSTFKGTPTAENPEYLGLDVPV

Compound: COc1ccc(-c2nn(-c3cccc(NC(=O)c4cccc(C(F)(F)F)c4)c3)cc2-c2ccncc2)cc1Cl
- inhibition [1]: 63.2%
- Ratio IC50 (Homo sapiens [2]): 455
- inhibition [3]: 26.9%
- AUC(0-t) at 0.5 h [4]: 164 ng·h/mL
- Ratio IC50 (Homo sapiens [5]): 23.8
- inhibition [6]: 33.4%
- half-life [7]: 6.4 h
- Cmax [8]: 33.2 ng/mL
- inhibition [9]: 19%
- IC50 [10]: 22 nM
- inhibition [11]: 24.4%
- inhibition [12]: 12.2%
- inhibition [13]: 28.2%
- IC50 [14]: 336 nM
- IC50 (THP-1): 58 nM
- inhibition [15]: 6.75%
- bioavailability [16]: 11.3%
- inhibition [17]: 3.5%
- inhibition [18]: 24.5%
- inhibition [19]: 54.4%
- remaining at 0.5 h, 10 µM [20]: 100%
- Tmax [21]: 1.2 h
- IC50 [22]: > 10000 nM
- inhibition [23]: 90.8%
- inhibition [24]: 7.06%
- AUC(0-t) at 0.5 h [25]: 1450 ng·h/mL
- inhibition [26]: 27%
- inhibition [27]: -3.79%
- inhibition [28]: 2.43%
- clearance [29]: 90 mL/min/kg
- inhibition [30]: -4.1%
- AUC(0-inf) [31]: 1460 ng·h/mL
- EC50 [32]: 520 nM
- inhibition [33]: 20.4%
